The record followed here is patent US20230390274A1 (EPIRIUM BIO INC., priority 2020, published 2023).

pIC50: −log10 of the molar value.

The target of this experiment is 15-PGDH/HPGD (Homo sapiens (Human), UniProt P15428). The experiment can be described thus: hPGDH inhibitor screening biochemical assay. As to conditions: 10 nM 15-PGDH/HPGD, 15 μM PGE2, 0.25 mM NAD; read-out: hPGDH: Average IC50. An outline of the steps: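 10 nM recombinant 15-PGDH was preincubated with compound (10-point) for 10 min at 37° C. in 50 mM Tris-HCl pH 7.5, 0.01% Tween 20. Then 15 μM PGE2 and 0.25 mM NAD+ were added for 10 min at rt. NADH fluorescence (ex/em 340/485 nm) gave % inhibition versus 1% DMSO and a four-parameter IC50.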
Chain of 15-PGDH/HPGD (P15428 whole entry): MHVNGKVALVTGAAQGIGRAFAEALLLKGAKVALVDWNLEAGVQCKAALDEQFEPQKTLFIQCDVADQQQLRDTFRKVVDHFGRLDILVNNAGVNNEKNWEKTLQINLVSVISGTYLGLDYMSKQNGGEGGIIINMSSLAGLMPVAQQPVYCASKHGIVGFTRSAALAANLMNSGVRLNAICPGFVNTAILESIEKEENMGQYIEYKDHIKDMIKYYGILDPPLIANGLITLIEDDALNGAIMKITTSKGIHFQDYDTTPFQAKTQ

For `CC(C)(C)CNC(=O)c1ccc(-n2ccc3cc(C(=O)N4CCC(F)(F)CC4)cnc32)cn1` [A-240, 5-(5-(4,4-difluoropiperidine-1-carbonyl)-1H-pyrrolo[2,3-b]pyridin-1-yl)-N-neopentylpicolinamide], the negative-log IC50 (pIC50) is greater than 7.00.
The same measure for `N#Cc1ccc(-n2ccc3cc(C(=O)N4CCC(F)(F)CC4)cnc32)cc1` [A-241, 4-(5-(4,4-difluoropiperidine-1-carbonyl)-1H-pyrrolo[2,3-b]pyridin-1-yl)benzonitrile]: greater than 7.00; for `N#Cc1ccc(-n2ccc3cc(C(=O)N4CCC(F)(F)CC4)cnc32)cc1O` [A-243]: greater than 7.00; for `CC(C)(O)CCc1cc2cc(C(=O)N3CCC(F)(F)CC3)cnc2n1-c1ccc(C#N)cc1` [A-244, 4-(5-(4,4-difluoropiperidine-1-carbonyl)-2-(3-hydroxy-3-methylbutyl)-1H-pyrrolo[2,3-b]pyridin-1-yl)benzonitrile]: greater than 7.00.
To `CC(C)(C)NC(=O)c1cncc(-n2ccc3cc(C(=O)N4CCC(F)(F)CC4)cnc32)c1` [A-246, N-(tert-butyl)-5-(5-(4,4-difluoropiperidine-1-carbonyl)-1H-pyrrolo[2,3-b]pyridin-1-yl)nicotinamide] belongs greater than 7.00; to `NC(=O)[C@@H]1CCCN1C(=O)c1ccc(-n2ccc3cc(C(=O)N4CCC(F)(F)CC4)cnc32)cc1` [A-248, (S)-1-(4-(5-(4,4-difluoropiperidine-1-carbonyl)-1H-pyrrolo[2,3-b]pyridin-1-yl)benzoyl)pyrrolidine-2-carboxamide], greater than 7.00; to `O=C(c1ccc(-n2ccc3cc(C(=O)N4CCC(F)(F)CC4)cnc32)cc1)N(CCO)CCO` [A-249], greater than 7.00.
Consider `O=C(c1cnc2c(ccn2-c2ccc(-c3nnn[nH]3)nc2)c1)N1CCC(F)(F)CC1` [A-250, (1-(6-(1H-tetrazol-5-yl)pyridin-3-yl)-1H-pyrrolo[2,3-b]pyridin-5-yl)(4,4-difluoropiperidin-1-yl)methanone], for which the pIC50 is greater than 7.00.
To `O=C(c1cnc2c(ccn2-c2cncc(-c3nnn[nH]3)c2)c1)N1CCC(F)(F)CC1` [A-251, (1-(5-(1H-tetrazol-5-yl)pyridin-3-yl)-1H-pyrrolo[2,3-b]pyridin-5-yl)(4,4-difluoropiperidin-1-yl)methanone] belongs greater than 7.00; to `O=C(c1cnc2c(ccn2-c2cncc(-c3noc(=O)[nH]3)c2)c1)N1CCC(F)(F)CC1` [A-252, 3-(5-(5-(4,4-difluoropiperidine-1-carbonyl)-1H-pyrrolo[2,3-b]pyridin-1-yl)pyridin-3-yl)-1,2,4-oxadiazol-5(4H)-one], greater than 7.00; to `O=C(c1cnc2c(ccn2-c2ccc(-c3ncn[nH]3)nc2)c1)N1CCC(F)(F)CC1` [A-253], greater than 7.00.
To `O=C(c1cnc2c(ccn2-c2ccc(-c3noc(=O)[nH]3)nc2)c1)N1CCC(F)(F)CC1` [A-254, 3-(5-(5-(4,4-difluoropiperidine-1-carbonyl)-1H-pyrrolo[2,3-b]pyridin-1-yl)pyridin-2-yl)-1,2,4-oxadiazol-5(4H)-one] belongs greater than 7.00; to `CC1(C)NC(=O)N(c2ccc(-n3ccc4cc(C(=O)N5CCC(F)(F)CC5)cnc43)cn2)C1=O` [A-255], greater than 7.00; to `O=C(Nc1cncc(-n2ccc3cc(C(=O)N4CCC(F)(F)CC4)cnc32)c1)c1ccno1` [A-256], greater than 7.00.
To `O=C(Nc1ccno1)c1cncc(-n2ccc3cc(C(=O)N4CCC(F)(F)CC4)cnc32)c1` [A-257, 5-(5-(4,4-difluoropiperidine-1-carbonyl)-1H-pyrrolo[2,3-b]pyridin-1-yl)-N-(isoxazol-5-yl)nicotinamide] belongs greater than 7.00.
As for `O=C(Nc1ccno1)c1ccc(-n2ccc3cc(C(=O)N4CCC(F)(F)CC4)cnc32)cn1` [A-258], the pIC50 was greater than 7.00.
The same measure for `N#Cc1ccc(-n2ccc3nc(C(=O)N4CCC(F)CC4)ccc32)cc1` [A-259, 4-(5-(4-fluoropiperidine-1-carbonyl)-1H-pyrrolo[3,2-b]pyridin-1-yl)benzonitrile]: no more than 6.00.
For `N#Cc1ccc(-n2ccc3cc(C(=O)N4CCC(F)CC4)ncc32)cc1` [A-260, 4-(5-(4-fluoropiperidine-1-carbonyl)-1H-pyrrolo[2,3-c]pyridin-1-yl)benzonitrile], the negative-log IC50 (pIC50) was no more than 6.00.
To `O=C(NCCO)c1cccc(-n2ccc3cc(C(=O)N4CCC(F)(F)CC4)cnc32)c1` [A-263, 3-(5-(4,4-difluoropiperidine-1-carbonyl)-1H-pyrrolo[2,3-b]pyridin-1-yl)-N-(2-hydroxyethyl)benzamide] belongs greater than 7.00.
`O=C(O)c1ccc(-n2ccc3cc(C(=O)N4CCC(F)(F)CC4)cnc32)nc1` [A-264]: the pIC50 is greater than 7.00.
To `Cc1nc(-c2cncc(-n3ccc4cc(C(=O)N5CCC(F)(F)CC5)cnc43)c2)no1` [A-265, (4,4-difluoropiperidin-1-yl)(1-(5-(5-methyl-1,2,4-oxadiazol-3-yl)pyridin-3-yl)-1H-pyrrolo[2,3-b]pyridin-5-yl)methanone] belongs greater than 7.00.
To `O=C(c1cnc2c(ccn2-c2cncc(N3CCOC3=O)c2)c1)N1CCC(F)(F)CC1` [A-267] belongs greater than 7.00; to `CCNC(=O)c1ccc(-n2ccc3cc(C(=O)N4CCC(F)(F)CC4)cnc32)nc1` [A-268, 6-(5-(4,4-difluoropiperidine-1-carbonyl)-1H-pyrrolo[2,3-b]pyridin-1-yl)-N-ethylnicotinamide], greater than 7.00.
To `NC[C@@H]1CN(c2ccc(-n3ccc4cc(C(=O)N5CCC(F)(F)CC5)cnc43)cn2)C(=O)O1` [A-269] belongs greater than 7.00; to `NC[C@@H]1CN(c2cncc(-n3ccc4cc(C(=O)N5CCC(F)(F)CC5)cnc43)c2)C(=O)O1` [A-270], greater than 7.00; to `CS(=O)(=O)NCCNC(=O)c1cccc(-n2ccc3cc(C(=O)N4CCC(F)(F)CC4)cnc32)c1` [A-271, 3-(5-(4,4-difluoropiperidine-1-carbonyl)-1H-pyrrolo[2,3-b]pyridin-1-yl)-N-(2-(methylsulfonamido)ethyl)benzamide], greater than 7.00.
As for `O=C(NC1CCS(=O)(=O)CC1)c1cc(Cl)cc(-n2ccc3cc(C(=O)N4CCC(F)(F)CC4)cnc32)c1` [A-272], the negative logarithm of the IC50 (pIC50) was greater than 7.00.
Regarding `NC(=O)c1cncc(-n2cc(Cl)c3cc(C(=O)N4CCC(F)(F)CC4)cnc32)c1` [A-273], the pIC50 was greater than 7.00.
To `O=C(c1cnc2c(ccn2-c2cncc(NS(=O)(=O)C3CC3)c2)c1)N1CCC(F)(F)CC1` [A-274, N-(5-(5-(4,4-difluoropiperidine-1-carbonyl)-1H-pyrrolo[2,3-b]pyridin-1-yl)pyridin-3-yl)cyclopropanesulfonamide] belongs greater than 7.00; to `CCOC(=O)Nc1cncc(-n2ccc3cc(C(=O)N4CCC(F)(F)CC4)cnc32)c1` [A-275, ethyl (5-(5-(4,4-difluoropiperidine-1-carbonyl)-1H-pyrrolo[2,3-b]pyridin-1-yl)pyridin-3-yl)carbamate], greater than 7.00; to `NC(=O)[C@@H]1CCCN1C(=O)c1cccc(-n2ccc3cc(C(=O)N4CCC(F)(F)CC4)cnc32)c1` [A-276, (S)-1-(3-(5-(4,4-difluoropiperidine-1-carbonyl)-1H-pyrrolo[2,3-b]pyridin-1-yl)benzoyl)pyrrolidine-2-carboxamide], greater than 7.00.
